Read-outs that look alike come from different tables or passages of the source.
What was measured:
[1] = Acute toxicity in mice, intravenous and oral (LD50); format: in vivo; details: mouse, in vivo
Excerpt: (§1) The acute toxicities of the compounds according to the invention have been determined CD 1 mice (Charles RIVER) by intravenous and oral methods. The LD50 calculated by the quantal cumulative method of J. J. Reed and H. Muench (Amer. J. Hyg. 1938, 27, 493) are collected in the following Table: […]

[2] = tested on: glycemia; assay: Hypoglycemiant activity, variation of glycemia after 4 days of daily oral treatment; format: in vivo, male CD rats (Charles RIVER); details: rat
Procedure: The hypoglycemiant properties have been studied on the male CD rats (Charles RIVER) weighing 200 to 250 g, in which the glycemia is controlled before treatment and then after 4 days of daily oral treatment. The seric glucose is determined by the method of W. S. Hoffmann (J. Biol. Chem., 1937, 120, 51). Groups of 10 rats are used and the hypoglycemiant activity is expressed by the percentage variation of the average glycemia of the treated animals with respect to that of the controls. If it is necessary, the statistical significance of the difference is determined by the test of the coefficient "t" of Student.

[3] = tested on: serotonin (shaking of the head induced by 5-hydroxy-tryptophan); assay: Central antiserotonin activity: Head-twitch induced by 5-hydroxy-tryptophan; format: in vivo, mice; details: for ED50: Mus musculus, mice, oral, read-out: Antiserotonin activity Head-twitch AD 50; for central antiserotonin activity (in words): given orally to mice
Excerpt: The analgesic activities have been investigated with respect to abdominal spasms caused in mice by the intraperitoneal injection of 2-phenyl-1,4-benzoquinone according to E. Siegmund, E. Cadmus and G. Lu, Proc. Soc. exp. […] The central antiserotonin properties have been determined by the "Head-twitch" technique in mice according to S. J. Corne, R. W. Pickering and B. T. Warner, Brit. […] In this test, the antiserotonin products inhibit the sudden shaking of the head induced in mice by 5-hydroxy-tryptophan, the biological precursor of serotonin.

[4] = tested on: isolated duodenum of rabbit, spasms induced by barium chloride; assay: Spasmolytic activity, musculotrope versus BaCl2, isolated duodenum (Magnus)
Excerpt: (§2) The spasmolytic activities are known by means of the technique of R. Magnus (Arch. Ges. Physiol., 1904, 102, 123) on the isolated duodenum of rabbits. The spasmolytic neurotropes inhibit the contractions of the organ caused by acetylcholine, while the musculotropes prevent the spasms induced by barium chloride. The EC 50 expressed in mg/litre are collected in the following Table where EC denotes "Effective concentration".

[5] = tested on: abdominal spasms caused in mice by 2-phenyl-1,4-benzoquinone; assay: Analgesic activity: abdominal spasms caused by intraperitoneal 2-phenyl-1,4-benzoquinone (P.B.Q.); format: in vivo; details: for ED50: Mus musculus, mice, oral, read-out: Analgesic activity P.B.Q. AD 50; for analgesic activity (in words): given orally to mice
Excerpt: The analgesic activities have been investigated with respect to abdominal spasms caused in mice by the intraperitoneal injection of 2-phenyl-1,4-benzoquinone according to E. Siegmund, E. Cadmus and G. Lu, Proc. Soc. exp. Biol. Med., 1957, 95, 729-731. The central antiserotonin properties have been determined by the "Head-twitch" technique in mice according to S. J. Corne, R. W. Pickering and B. T. Warner, Brit. J. Pharmacol., 1963, 20, 106-120. In this test, the antiserotonin products inhibit the sudden shaking of the head induced in mice by 5-hydroxy-tryptophan, the biological precursor of serotonin.

[6] = tested on: isolated duodenum of rabbit, contractions caused by acetylcholine; assay: Spasmolytic activity, neurotrope versus acetylcholine, isolated duodenum (Magnus)
Excerpt: as §2

[7] = tested on: isolated rabbit heart; assay: Coronaro-dilatatory activity, isolated heart (Langendorff modified by Anderson); details: for coronaro-dilatatory activity (in words): isolated rabbit heart
Excerpt: The technique of Langendorff, modified by F. E. Anderson, (J. Pharmacol. exp. Therap., 1948, 91, 135) using isolated rabbit heart permits the coronaro-dilatatory activity of the products to be studied. In this text, the cardiac perfusion liquid contains 0.5 UI/1 of posthypophysis. The results are expressed in the percentage variation of the coronary flow after affusion of the product to be tested, compared with the initial flow.

[8] = tested on: mice; assay: Acute toxicity in mice, intravenous and oral (LD50); format: in vivo
Excerpt: as §1

[9] = oral, read-out: Acute toxicity to mice LD 50, orally
[10] = intravenous, read-out: Acute toxicity to mice LD 50, intravenous

CSc1c(Cl)nc(N(C)c2cccc(C(F)(F)F)c2)nc1NCCN(C(C)C)C(C)C [Example 17, 2-N-methyl-N(3-trifluoromethyl-phenyl)-amino-4-(2'-diisopropylamino)-ethylamino-5-methylthio-6-chloro-pyrimidine]
LD50 [1, 9]: > 900 mg/kg
hypoglycemiant properties (in words) [2]: strong hypoglycemiant properties
ED50 [3]: 400 mg/kg
Spasmolytic activity EC 50, musculotrope versus BaCl2 [4]: 0.50 µg/mL

CCN(CC)CCNc1nc(N(C)c2ccccc2)nc(Cl)c1SC [Example 2, 2-N-methyl-N-phenylamino-4-(2'-diethylamino)-ethylamino-5-methylthio-6-chloro-pyrimidine]
ED50 [5]: > 100 mg/kg
LD50 [1, 10]: 43 mg/kg
LD50 [1, 9]: 225 mg/kg
Spasmolytic activity EC 50, neurotrope versus acetylcholine [6]: 1.50 µg/mL
ED50 [3]: 95 mg/kg
central antiserotonin activity (in words) [3]: central antiserotonine
Increase of the coronary flow ([7]; dose 0.01 mg): 56%
Increase of the coronary flow ([7]; dose 0.03 mg): 58%
Increase of the coronary flow ([7]; dose 0.10 mg): 64%
Increase of the coronary flow ([7]; dose 0.30 mg): 91%
coronaro-dilatatory activity (in words) [7]: interesting coronaro-dilatatory activities
Spasmolytic activity EC 50, musculotrope versus BaCl2 [4]: 0.80 µg/mL

CSc1c(Cl)nc(N(C)c2ccccc2)nc1NCCN(C)C [Example 7, 2-N-methyl-N-phenyl-amino-4-(2'-dimethyl-amino)-ethylamino-5-methylthio-6-chloro-pyrimidine]
ED50 [5]: 60 mg/kg
analgesic activity (in words) [5]: marked analgesic activity
LD50 [1, 10]: 80 mg/kg
LD50 [1, 9]: 200 mg/kg
Spasmolytic activity EC 50, neurotrope versus acetylcholine [6]: 1.20 µg/mL
Increase of the coronary flow ([7]; dose 0.003 mg): 38%
Increase of the coronary flow ([7]; dose 0.01 mg): 40%
Increase of the coronary flow ([7]; dose 0.03 mg): 37%
Increase of the coronary flow ([7]; dose 0.10 mg): 77%
coronaro-dilatatory activity (in words) [7]: interesting coronaro-dilatatory activities
Spasmolytic activity EC 50, musculotrope versus BaCl2 [4]: 0.16 µg/mL

CSc1c(Cl)nc(N2CCCCC2)nc1NCCN(C(C)C)C(C)C [Example 13, 2-piperidino-4-(2'-diisopropylamino)-ethylamino-5-methylthio-6-chloro-pyrimidine]
LD50 [1, 9]: > 900 mg/kg
hypoglycemiant properties (in words) [2]: strong hypoglycemiant properties
ED50 [3]: 185 mg/kg

COc1nc(N(C)Cc2ccccc2)nc(NCCN(C(C)C)C(C)C)c1SC [Example 27, 2-N-methyl-N-benzyl-amino-4-(2'-diiso-propyl-amino)-ethylamino-5-methyl-thio-6-methoxy-pyrimidine]
ED50 [5]: 95 mg/kg
analgesic activity (in words) [5]: marked analgesic activity
LD50 [1, 10]: 18.5 mg/kg
LD50 [1, 9]: 600 mg/kg
Spasmolytic activity EC 50, musculotrope versus BaCl2 [4]: 0.08 µg/mL
musculotropic EC 50 [4]: less than 0.1 mg/liter
musculotropic spasmolytic activity (in words) [4]: quite remarkable activities

COc1nc(N(C)c2ccccc2)nc(NCCN(C)C)c1SC [Example 26, 2-N-methyl-N-phenyl-amino-4-(2'-dimethylamino)-ethylamino-5-methylthio-6-methoxy-pyrimidine]
ED50 [5]: 65 mg/kg
LD50 [1, 10]: 70 mg/kg
LD50 [1, 9]: 225 mg/kg

COc1nc(N(C)c2ccccc2)nc(NCCN(C(C)C)C(C)C)c1SC [Example 24, 2-N-methyl-N,phenylamino-4-(2'-diisopropylamino)-ethylamino-5-methyl-thio-6-methoxy-pyrimidine]
LD50 [1, 10]: 22 mg/kg
LD50 [1, 9]: 600 mg/kg
Spasmolytic activity EC 50, neurotrope versus acetylcholine [6]: 0.12 µg/mL
neurotropic spasmolytic activity (in words) [6]: necessary to call attention
hypoglycemiant properties (in words) [2]: strong hypoglycemiant properties
Increase of the coronary flow ([7]; dose 0.003 mg): 26%
Increase of the coronary flow ([7]; dose 0.01 mg): 32%
Increase of the coronary flow ([7]; dose 0.03 mg): 58%
Increase of the coronary flow ([7]; dose 0.10 mg): 67%
coronaro-dilatatory activity (in words) [7]: interesting coronaro-dilatatory activities
Spasmolytic activity EC 50, musculotrope versus BaCl2 [4]: 0.13 µg/mL

CSc1c(Cl)nc(N(C)c2ccc(Cl)cc2)nc1NCCN(C(C)C)C(C)C [Example 18, 2-N-methyl-N(4-chloro-phenyl)amino-4-(2'-diisopropyl-amino)-ethylamino-5-methylthio-6-chloro-pyrimidine]
ED50 [5]: > 300 mg/kg
LD50 [1, 9]: > 900 mg/kg
hypoglycemiant properties (in words) [2]: strong hypoglycemiant properties
ED50 [3]: 205 mg/kg

CCN(CC)CCNc1nc(N(CC)CC)nc(Cl)c1SC [Example 3, 2-diethylamino-4-(2'-diethylamino)-ethyl-amino-5-methylthio-6-chloro-pyrimidine]
ED50 [5]: > 100 mg/kg
LD50 [1, 10]: 64 mg/kg
LD50 [1, 9]: 225 mg/kg
Spasmolytic activity EC 50, neurotrope versus acetylcholine [6]: 1.30 µg/mL
ED50 [3]: 35 mg/kg
central antiserotonin activity (in words) [3]: central antiserotonine
Spasmolytic activity EC 50, musculotrope versus BaCl2 [4]: 0.30 µg/mL

CCN(CC)c1nc(Cl)c(SC)c(NCCN(C(C)C)C(C)C)n1 [Example 16, 2-diethylamino-4-(2'-diisopropylamino)-ethylamino-5-methylthio-6-chloro-pyrimidine]
ED50 [5]: 70 mg/kg
analgesic activity (in words) [5]: marked analgesic activity
LD50 [1, 9]: 600 mg/kg
ED50 [3]: 90 mg/kg
central antiserotonin activity (in words) [3]: central antiserotonine
Increase of the coronary flow ([7]; dose 0.003 mg): 16%
Increase of the coronary flow ([7]; dose 0.01 mg): 52%
coronaro-dilatatory activity (in words) [7]: interesting coronaro-dilatatory activities
Spasmolytic activity EC 50, musculotrope versus BaCl2 [4]: 0.30 µg/mL

CCCN(CCC)c1nc(Cl)c(SC)c(NCCN(CC)CC)n1 [Example 5, 2-dipropylamino-4-(2'-diethylamino)-ethylamino-5-methylthio-6-chloro-pyrimidine]
ED50 [5]: > 300 mg/kg
LD50 [1, 9]: 800 mg/kg
Spasmolytic activity EC 50, neurotrope versus acetylcholine [6]: 1.00 µg/mL
hypoglycemiant properties (in words) [2]: strong hypoglycemiant properties
ED50 [3]: 100 mg/kg
Spasmolytic activity EC 50, musculotrope versus BaCl2 [4]: 0.90 µg/mL

CSc1c(Cl)nc(N(C)c2ccccc2)nc1NCCN(C(C)C)C(C)C [Example 12, 2-N-methyl-N-phenylamino-4-(2'-di-isopropyl-amino)-ethylamino-5-methylthio-6-chloro-pyrimidine]
ED50 [5]: 100 mg/kg
LD50 [1, 9]: 600 mg/kg
hypoglycemiant properties (in words) [2]: strong hypoglycemiant properties

CSc1c(NCCN(C(C)C)C(C)C)nc(N(C)c2ccccc2)nc1OCCCN(C)C [Example 30, 2-N-methyl-N-phenyl-amino-4-(2'-di-isopropyl-amino)-ethylamino-5-methyl-thio-6-(dimethylaminoethyl)-methoxy-pyrimidine]
Acute toxicity to mice LD 50, intravenous ([8]; intravenous): 9.5 mg/kg
Acute toxicity to mice LD 50, orally ([8]; oral): 200 mg/kg
hypoglycemiant properties (in words) [2]: strong hypoglycemiant properties
Spasmolytic activity EC 50, musculotrope versus BaCl2 [4]: 1.00 µg/mL

CCN(CC)CCNc1nc(N(C)c2ccc(Cl)cc2)nc(Cl)c1SC [Example 6, 2-N-methyl-2-N-(4-chloro-phenyl)amino-4-(2'-diethylamino)-ethylamino-5-methylthio-6-chloro-pyrimidine]
LD50 [1, 9]: 610 mg/kg
hypoglycemiant properties (in words) [2]: strong hypoglycemiant properties
ED50 [3]: 65 mg/kg
central antiserotonin activity (in words) [3]: central antiserotonine
